{
  "source": "patent US20070259053A1",
  "about": "“Inhibition of nephrotoxicity induced by Trasylol® and like agents” (priority 2006, published 2007)",
  "origin": "cited, not measured here",
  "key": {"[1]": {"system": "mercury induced acute renal failure", "conditions": "in vivo"}, "[2]": {"system": "gentamicin induced renal toxic effects"}, "[3]": {"system": "renal accumulation of lysozyme", "conditions": "microinfusion experiments"}, "[4]": {"system": "renal accumulation of gentamicin"}, "BBM": {"system": "BBM", "conditions": "for effect on binding of albumins of increased isoelectric points to BBM: b13: pH 6.5, pI 8.5 albumins"}, "[5]": {"system": "isolated renal brush border membranes", "conditions": "for effect on binding of gentamicin to isolated renal brush border membranes: isolated BBM"}, "[6]": {"system": "toxic effects of spermine and gentamicin"}, "[7]": {"system": "renal toxic effects of cisplatin", "conditions": "rat"}, "[8]": {"system": "renal toxic effects of cisplatin", "conditions": "bird"}, "kidney": {"system": "kidney", "conditions": "noted by autoradiography"}},
  "note": "Like-named read-outs stand apart in the source and are kept apart here.",
  "data": [
    {"compound": "Clc1cccc(Cl)c1N=C1NCCN1", "note": "[Clonidine]", "values": [
      {"measurement": "effect on mercury induced acute renal failure", "setting": "[1]", "result": "protected"},
      {"measurement": "effect on gentamicin induced renal toxic effects", "setting": "[2]; rat kidney", "result": "inhibited"}
    ]},
    {"compound": "N=C(N)NCCC[C@H](N)C(=O)O", "note": "[L-arginine]", "values": [
      {"measurement": "effect on renal accumulation of lysozyme", "setting": "[3]", "result": "inhibited"}
    ]},
    {"compound": "C[n+]1cccc(C(N)=O)c1", "note": "[N′-methylnicotinamide]", "values": [
      {"measurement": "effect on renal accumulation of gentamicin", "setting": "[4]; rats", "result": "inhibited"},
      {"measurement": "effect on urinary excretion of gentamicin", "setting": "[4]; rats", "result": "increased"}
    ]},
    {"compound": "[Cd]", "note": "[cadmium]", "values": [
      {"measurement": "effect on gentamicin accumulation in the renal cortex", "setting": "[4]; cadmium treated animals", "result": "reduced"}
    ]},
    {"compound": "[Ca+2]", "note": "[calcium]", "values": [
      {"measurement": "effect on binding of lysozyme to BBM", "setting": "BBM", "result": "decreased"},
      {"measurement": "effect on binding of albumins of increased isoelectric points to BBM", "setting": "BBM", "result": "decreased"},
      {"measurement": "effect on binding of albumins of increased isoelectric points to BBM", "setting": "BBM; listed as Ca^++", "result": "inhibited"},
      {"measurement": "effect on binding of lysozyme to BBM", "setting": "BBM; listed as Ca^++", "result": "inhibited"},
      {"measurement": "effect on binding of gentamicin to isolated renal brush border membranes", "setting": "[5]", "result": "competitive inhibitor"}
    ]},
    {"compound": "N.N.[Cl][Pt][Cl]", "note": "[cisplatin]", "values": [
      {"measurement": "effect on transport of N′-methylnicotinamide into vesicles of BBM", "setting": "vesicles of BBM", "result": "inhibited"},
      {"measurement": "effect on transport of tetraethylamonium (TEA) into vesicles of BBM", "setting": "vesicles of BBM", "result": "inhibited"},
      {"measurement": "effect on uptake of TEA", "setting": "mouse kidney", "result": "inhibited"},
      {"measurement": "effect on uptake of p-aminohipputate", "setting": "mouse kidney", "result": "inhibited"}
    ]},
    {"compound": "NCCCC[C@H](N)C(=O)O", "note": "[lysine]", "values": [
      {"measurement": "effect with the renal toxic effects of gentamicin", "setting": "[2]; given with gentamicin", "result": "additive effect"},
      {"measurement": "effect on renal accumulation of lysozyme", "setting": "[3]", "result": "inhibited"}
    ]},
    {"compound": "Cc1ncc(COP(=O)(O)O)c(C=O)c1O", "note": "[pyridoxal 5′-phsophate, pyridoxal 5′-phosphate]", "values": [
      {"measurement": "effect on toxic effects of gentamicin", "setting": "[6]; in vivo", "result": "inhibited"},
      {"measurement": "effect on toxic effects of spermine", "setting": "[6]; positively charged renal toxin spermine", "result": "inhibited"}
    ]},
    {"compound": "C=C[C@H]1C[N@@]2CC[C@H]1C[C@H]2[C@H](O)c1ccnc2ccc(OC)cc12", "note": "[quinine]", "values": [
      {"measurement": "effect on renal toxic effects of cisplatin", "setting": "[7]", "result": "provided protection"},
      {"measurement": "effect on renal toxic effects of cisplatin", "setting": "[8]", "result": "provided protection"}
    ]},
    {"compound": "NCCCNCCCCNCCCN", "note": "[spermine]", "values": [
      {"measurement": "effect on uptake of gentamicin by renal tubular BBM", "setting": "[5]; renal tubular BBM", "result": "inhibited"},
      {"measurement": "effect on renal accumulation of lysozyme", "setting": "[3]", "result": "inhibited"}
    ]},
    {"compound": "Myoglobin", "values": [
      {"measurement": "effect on renal accumulation of lysozyme", "setting": "[3]", "result": "without effect"}
    ]},
    {"compound": "aprotinin", "values": [
      {"measurement": "time after administration at which level peaked in the kidney", "setting": "kidney", "result": 72, "unit": "h"},
      {"measurement": "effect on binding of gentamicin to isolated renal brush border membranes", "setting": "[5]", "result": "inhibited"},
      {"measurement": "effect on renal absorption of gentamicin", "setting": "[4]; in vivo", "result": "did not unambiguously inhibit"}
    ]},
    {"compound": "cytochrome C", "values": [
      {"measurement": "effect on renal accumulation of lysozyme", "setting": "[3]", "result": "inhibited"}
    ]},
    {"compound": "polylycine", "values": [
      {"measurement": "effect on acute toxic effects of whole animal nephrotoxicity (gentamicin)", "setting": "[2]; whole animal", "result": "lessened"},
      {"measurement": "effect on binding of gentamicin to isolated renal brush border membranes", "setting": "[5]", "result": "inhibited"}
    ]},
    {"compound": "ribonuclease", "values": [
      {"measurement": "effect on renal accumulation of lysozyme", "setting": "[3]", "result": "inhibited"}
    ]},
    {"compound": "tetralysine", "values": [
      {"measurement": "effect on uptake of gentamicin in rat renal cortex", "setting": "[4]; rat renal cortex", "result": "inhibited"}
    ]}
  ]
}
